In BigSolDB 2.1:

COc1ccc2[nH]cc(CCNC(C)=O)c2c1
solubility (mole fraction)
Settings | 278.15 K | 283.15 K | 288.15 K | 293.15 K | 298.15 K | 303.15 K | 308.15 K | 313.15 K | 318.15 K | 323.15 K
in ethanol | 0.00853 | 0.0113 | 0.0151 | 0.02 | 0.0254 | 0.032 | 0.0406 | 0.0527 | 0.0665 | 0.0844
in isobutanol | 0.00406 | 0.00538 | 0.0073 | 0.00972 | 0.0127 | 0.0167 | 0.0212 | 0.0276 | 0.0352 | 0.0441
in methanol | 0.0116 | 0.0158 | 0.0211 | 0.0282 | 0.0357 | 0.0462 | 0.0594 | 0.0757 | 0.0963 | 0.122
in methyl acetate | 0.00303 | 0.00406 | 0.00531 | 0.00688 | 0.0085 | 0.0112 | 0.0144 | 0.0191 | 0.0244 | 0.0306
in n-butanol | 0.00518 | 0.00676 | 0.009 | 0.0118 | 0.0152 | 0.0199 | 0.0257 | 0.0328 | 0.0425 | 0.0536
in n-hexanol | 0.0038 | 0.00497 | 0.00679 | 0.00872 | 0.0114 | 0.0146 | 0.019 | 0.0244 | 0.0308 | 0.0393
in n-pentanol | 0.00515 | 0.00671 | 0.00889 | 0.0114 | 0.0145 | 0.0184 | 0.0233 | 0.0291 | 0.0365 | 0.0444
in n-propanol | 0.00602 | 0.00792 | 0.0108 | 0.0147 | 0.0197 | 0.0254 | 0.0329 | 0.0418 | 0.0538 | 0.0701
